The values below come from US10640545B2 (THE GOVERNORS OF THE UNIVERSITY OF ALBERTA, priority 2017, dated 2020).

Data set [1] in a line: human blood plasma (20 μL of plasma). The settings on record: 37° C., up to 60 min.
The test system of data set [2] is recombinant human neprilysin (rhNEP, Sino Biological). The data set can be described thus: rhNEP diluted in Tris buffer (100 mM Tris, 100 mM NaCl, 10 μM ZnCl2, pH 7.5), 3.1 nM final concentration. The settings on record: 37° C., up to 72 h.
Data set [3] deals with Recombinant Human Neprilysin (Homo sapiens, UniProt P08473). Description: Neprilysin qualitative cleavage assay (MALDI-TOF). Conditions: rhNEP 2 ng/μL, 37° C., first degradation products by MALDI-TOF. The procedure:
Native apelin-17 (2) and apelin peptides 5, 54, 56, 57, 58 and 59 were dissolved in Milli-Q water (1 mM). Recombinant Human Neprilysin (rhNEP, Sino Biological) was reconstituted in Tris buffer (100 mM Tris, 100 mM NaCl, 10 mM ZnCl2, pH 7.5). To initiate the assays, rhNEP was diluted in Tris buffer to a 2 ng/μL final concentration, and pre-incubated at 37° C. for 10 minutes prior to the addition of 5 μL of apelin peptide (1 mM). Aliquots (1 μL) were taken at 1, 2, 4, 6, 12, 24, 36, and 48 hours and analyzed with MALDI-TOF mass spectrometry to qualitatively determine the time point at which degradation products could be observed.

Data set [4] has as its target Human plasma kallikrein KLKB1 (Homo sapiens, UniProt P03952). The data set can be described thus: Plasma kallikrein KLKB1 qualitative cleavage assay (MALDI-TOF). Conditions: KLKB1, 37° C., first degradation products by MALDI-TOF. The method, then: Native apelin-17 (2) and apelin peptides 5, 56, 57, 58 and 59 were dissolved in Milli-Q water (1 mM). Human plasma kallikrein KLKB1 were each reconstituted in Tris buffer (100 mM TrisHCl, 10 mM CaCl2), 150 mM NaCl) and diluted with Tris buffer (50 mM TrisHCl, 250 mM NaCl) to give a KLKB1 concentration of […]. The KLKB1 enzyme was then preincubated at 37° C. for 10 minutes prior to the addition of 5 μL of apelin peptide (1 mM). Aliquots (1 μL) were taken at 1, 2, 4, 6, 12, 24, 36, and 48 hours and analyzed with MALDI-TOF mass spectrometry to qualitatively determine the time point at which degradation products could be observed (Table 4).

Data set [5] addresses T1, KLKB1 (Homo sapiens, UniProt P03952). The data set can be described thus: In vitro KLKB1 stability (half-life). It counts as in vitro ADME. Also on record: purchased Novoprotein. The settings on record: human; rhKLKB1, 37° C.; read-out: t1/2 (rhKLKB1, h) (converted).
The next data set deals with neprilysin (NEP) (Homo sapiens, UniProt P08473). Description: Neprilysin degradation assay (LC-MS, quantitative). The settings on record: human, pH 7.5. The procedure:
This experiment compared the in vitro NEP stability of the Arg/Leu peptides of the embodiments to native apelin isoforms and their A2 substituted counterparts. Peptides were incubated with recombinant human NEP (rhNEP, Sino Biological) at 37° C. for up to 72 h, and the extent of degradation was analyzed via LC-MS because of the overlapping elution patterns of peptide fragments. […] (McKinnie, S. M. K., et al. ChemBioChem: 17, 1495-1498 (2016)). […] (Dion, N., et al., Biochem. J.: 311, 623-627 (1995); Bateman Jr., R. C., et al., J. Biol. Chem.: 264, 6151-6157 (1989); McMurray, J. J. et al., J. Med.: 371, 993-1004 (2014)).
Apelin peptides were dissolved in Milli-Q water (1 mM). Recombinant human neprilysin (rhNEP, Sino Biological) was reconstituted in Tris buffer (100 mM Tris, 100 mM NaCl, 10 μM ZnCl2, pH 7.5). To initiate the assay, rhNEP was diluted in Tris buffer (3.1 nM final concentration), and preincubated at 37° C. for 10 minutes prior to the addition of 5 μL of apelin peptide (1 mM) and 1.5 μL internal standard dansyl-Tyr-Val-Gly-OH (1 mM). Aliquots (10 μL) were removed at 0, 1, 4, 24, and 72 h, quenched with 0.1 M EDTA (10 μL), diluted to 100 μL with Milli-Q water and analyzed by LC-MS. Assays were performed in triplicate (n=3) for each time point. Integrated peak areas of the parent apelin peptide and internal standard derived from LC-MS analyses, were extracted using Mass Hunter software (version B.04.00) and compared in positive extracted ion count modus (+EIC, extracted-ion chromatogram). […] (apelin:dansyl-YVG), to the same ratio at the different assay time points. The decrease in apelin:dansyl-YVG ratio was converted to a percentage of cleaved peptide over time.
The extent of degradation was analyzed via LC-MS because of the overlapping elution patterns of peptide fragments (NEP).
Native apelin-17 (2) and apelin peptides 5, 54, 56, 57, 58 and 59 were dissolved in Milli-Q water (1 mM). Recombinant human neprilysin (rhNEP, Sino Biological) was reconstituted in Tris buffer (100 mM Tris, 100 mM NaCl, 10 μM ZnCl2, pH 7.5). To initiate the assay, rhNEP was diluted in Tris buffer (3.1 nM final concentration) and preincubated at 37° C. for 10 min prior to the addition of 5 μL of apelin peptide (1 mM) and 1.5 μL of internal standard dansyl-Tyr-Val-Gly-OH (1 mM). Aliquots (10 μL) were removed at 0, 1, 4, 24, and 72 h, quenched with 0.1 M EDTA (10 μL), diluted to 100 μL with Milli-Q water, and analyzed by LC-MS. Assays were performed in triplicate (n=3) for each time point. Integrated peak areas of the parent apelin peptide and internal standard derived from LC-MS analyses were extracted using Mass Hunter software (version B.04.00) and compared in positive extracted ion count modus (+EIC). The extent of proteolysis was determined by comparing the initial (0 h) ratio of the integrated extracted ions of the parent apelin peptide to the internal dansyl-YVG standard (apelin/dansyl-YVG) to the same ratio at the different assay time points. The decrease in apelin/dansyl-YVG ratio was converted to a percentage of cleaved peptide over time.

In a further data set the test system is neprilysin (rhNEP). The data set can be described thus: recombinant human NEP (rhNEP, Sino Biological) in Tris buffer (100 mM Tris, 100 mM NaCl, 10 μM ZnCl2, pH 7.5). The settings on record: 37° C, up to 72 h.
For data set [6], the system named is KLKB1 (rhKLKB1, Novoprotein). The data set can be described thus: Human plasma kallikrein KLKB1 in Tris buffer, KLKB1 concentration of 2 ng/pL. The settings on record: 37° C., up to 48 hours.
Data set [7] has as its target T1, KLKB1. The settings on record: enzyme KLKB1, data from Gozzo et al. 2006; cited from earlier work.

Several values for one entry are separate records, joined by “and”; a condition that tells them apart may be missing. Equal entries are not always repeated. Where a SMILES comes first, the peptide text is derived from it. [ ]: non-standard residue; d: D form. The star is where a group is joined. Phe(4-Br) = N[C@@H](Cc1ccc(Br)cc1)C(=O)O; Fmoc = O=C(OCC1c2ccccc2-c2ccccc21)*; PEG6 = NCCOCCOCCOCCOCCOCCOCCC(=O)O; NMeL = CN[C@@H](CC(C)C)C(=O)O; Nle = CCCC[C@H](N)C(=O)O; Aib = CC(C)(N)C(=O)O

T1 sequence (P03952 20-638): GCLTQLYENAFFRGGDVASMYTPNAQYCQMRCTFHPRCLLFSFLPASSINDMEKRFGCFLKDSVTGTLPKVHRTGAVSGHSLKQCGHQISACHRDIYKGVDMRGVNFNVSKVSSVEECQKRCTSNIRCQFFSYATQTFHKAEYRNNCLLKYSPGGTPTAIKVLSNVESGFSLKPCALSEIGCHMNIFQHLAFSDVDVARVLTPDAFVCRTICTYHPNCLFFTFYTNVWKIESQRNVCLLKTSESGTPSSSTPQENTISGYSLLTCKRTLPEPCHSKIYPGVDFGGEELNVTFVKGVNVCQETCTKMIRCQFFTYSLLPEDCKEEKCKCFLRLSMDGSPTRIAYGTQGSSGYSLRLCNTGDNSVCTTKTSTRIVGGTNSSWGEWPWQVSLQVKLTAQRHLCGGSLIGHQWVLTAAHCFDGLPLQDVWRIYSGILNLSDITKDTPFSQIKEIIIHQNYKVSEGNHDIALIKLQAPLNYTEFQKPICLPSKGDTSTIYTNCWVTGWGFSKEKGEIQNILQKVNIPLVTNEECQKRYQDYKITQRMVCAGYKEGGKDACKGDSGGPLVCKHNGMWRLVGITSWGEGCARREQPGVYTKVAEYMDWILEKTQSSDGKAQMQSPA
Sequence of Recombinant Human Neprilysin (P08473 whole entry): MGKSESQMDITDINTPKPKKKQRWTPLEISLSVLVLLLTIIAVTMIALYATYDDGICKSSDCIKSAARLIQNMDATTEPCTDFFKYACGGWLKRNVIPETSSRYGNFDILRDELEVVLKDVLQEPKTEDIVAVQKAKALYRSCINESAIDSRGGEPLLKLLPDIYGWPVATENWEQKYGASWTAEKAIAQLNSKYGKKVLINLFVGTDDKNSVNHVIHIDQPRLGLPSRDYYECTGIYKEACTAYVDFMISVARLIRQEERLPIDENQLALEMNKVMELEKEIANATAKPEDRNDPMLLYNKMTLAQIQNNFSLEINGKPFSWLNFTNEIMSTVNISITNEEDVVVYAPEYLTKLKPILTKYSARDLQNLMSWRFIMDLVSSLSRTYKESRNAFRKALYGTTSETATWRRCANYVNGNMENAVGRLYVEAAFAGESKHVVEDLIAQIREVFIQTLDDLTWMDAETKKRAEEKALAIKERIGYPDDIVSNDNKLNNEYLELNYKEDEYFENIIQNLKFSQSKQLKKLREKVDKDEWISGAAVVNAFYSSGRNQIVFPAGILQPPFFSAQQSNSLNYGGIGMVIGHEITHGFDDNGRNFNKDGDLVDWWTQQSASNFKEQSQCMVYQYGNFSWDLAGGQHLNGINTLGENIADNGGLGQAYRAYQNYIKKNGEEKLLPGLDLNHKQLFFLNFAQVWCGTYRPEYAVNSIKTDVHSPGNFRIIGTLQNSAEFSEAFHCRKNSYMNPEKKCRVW
Sequence of neprilysin (NEP) (P08473 whole entry, the tested form may be a part, canonical isoform): as the sequence (P08473 whole entry) above
Sequence of Human plasma kallikrein KLKB1 (P03952 20-638): as the sequence (P03952 20-638) above

Regarding “Lys-Phe-Arg-Arg-Gln-Arg-Pro-azaArg-Leu-Ser-His-Lys-Gly-Pro-Nle-Aib-paraBrPhe”, the not cleaved in [1] came out at 94 ± 3 % apelin at 60 min. Besides, the cleaved bond result in data set [2] was “Nle15-Aib16, minor”.

As for `CCCC[C@H](NC(=O)[C@@H]1CCCN1C(=O)CNC(=O)[C@H](CCCCN)NC(=O)[C@H](Cc1cnc[nH]1)NC(=O)[C@H](CO)NC(=O)[C@H](CC(C)C)N(C)C(=O)[C@H](CCCNC(=N)N)NC(=O)[C@@H]1CCCN1C(=O)[C@H](CCCNC(=N)N)NC(=O)[C@H](CCC(N)=O)NC(=O)[C@H](CCCNC(=N)N)NC(=O)[C@H](CCCNC(=N)N)NC(=O)[C@H](Cc1ccccc1)NC(=O)[C@H](CCCCN)NC(=O)CCOCCOCCOCCOCCOCCOCCNC(=O)OCC1c2ccccc2-c2ccccc21)C(=O)NC(C)(C)C(=O)N[C@@H](Cc1ccc(Br)cc1)C(=O)O` [Peptide 59] ({Fmoc-PEG6}-KFRRQRPR[NMeL]SHKGP[Nle][Aib][Phe(4-Br)]-OH), the “Degradation Onset Timepoint with NEP” value in data set [3] is over 36 h. Also, the “Degradation Onset Timepoint with KLKB1” value in data set [4] is 2 h. Moreover, the figures for the half-life on KLKB1 [5] and at neprilysin (NEP) were 2.9 h and over 30 h, respectively.

For “pGlu-Arg-Pro-Arg-D-Leu-Ser-His-Lys-Gly-Pro-Nle-Aib-paraBrPhe”, the cleaved bond result with neprilysin (rhNEP) was “Nle11-Aib12, minor”; in data set [2], “Nle11-Aib12, minor”.

As to `CCCC[C@H](NC(=O)[C@@H]1CCCN1C(=O)CNC(=O)[C@H](CCCCN)NC(=O)[C@H](Cc1cnc[nH]1)NC(=O)[C@H](CO)NC(=O)[C@H](CC(C)C)NC(=O)[C@H](CCCNC(=N)N)NC(=O)[C@@H]1CCCN1C(=O)[C@H](CCCNC(=N)N)NC(=O)[C@H](CCC(N)=O)NC(=O)[C@H](CCCNC(=N)N)NC(=O)[C@H](CCCNC(=N)N)NC(=O)[C@H](Cc1ccccc1)NC(=O)[C@H](CCCCN)NC(=O)CCOCCOCCOCCOCCOCCOCCNC(=O)OCC1c2ccccc2-c2ccccc21)C(=O)NC(C)(C)C(=O)N[C@@H](Cc1ccc(Br)cc1)C(=O)O` [Peptide 57] ({Fmoc-PEG6}-KFRRQRPRLSHKGP[Nle][Aib][Phe(4-Br)]-OH), in data set [3], the “Degradation Onset Timepoint with NEP” value is 12 h. The “Degradation Onset Timepoint with KLKB1” value in data set [4] amounted to 1 h. The half-life at KLKB1 [5] was 1.4 h; at neprilysin (NEP), over 30 h.

On to “Lys-Phe-Arg-Arg-Gln-Arg-Pro-Arg-Leu-Ser-His-Lys-Gly-Pro-Nle-Aib-paraBrPhe”, for which, in data set [1], the fragment found was 1-3 and 4-17. For the same molecule, the cleaved bond entry in data set [6] is “Arg3-Arg4, <30 min”.

Turning to “Lys-Phe-Arg-Arg-Gln-Arg-Pro-Arg-D-Leu-Ser-His-Lys-Gly-Pro-Nle-Aib-paraBrPhe”, the cleaved bond result in the data set with neprilysin (rhNEP) is “Nle15-Aib16, minor”; in [2], “Nle15-Aib16, minor”.

B1: Kininogen: KLKB1 substrate, kinetic data from Gozzo et al. (protein, UniProt P01042 19-644, looked up)
Kininogen-1: QESQSEEIDCNDKDLFKAVDAALKKYNSQNQSNNQFVLYRITEATKTVGSDTFYSFKYEIKEGDCPVQSGKTWQDCEYKDAAKAATGECTATVGKRSSTKFSVATQTCQITPAEGPVVTAQYDCLGCVHPISTQSPDLEPILRHGIQYFNNNTQHSSLFMLNEVKRAQRQVVAGLNFRITYSIVQTNCSKENFLFLTPDCKSLWNGDTGECTDNAYIDIQLRIASFSQNCDIYPGKDFVQPPTKICVGCPRDIPTNSPELEETLTHTITKLNAENNATFYFKIDNVKKARVQVVAGKKYFIDFVARETTCSKESNEELTESCETKKLGQSLDCNAEVYVVPWEKKIYPTVNCQPLGMISLMKRPPGFSPFRSSRIGEIKEETTVSPPHTSMAPAQDEERDSGKEQGHTRRHDWGHEKQRKHNLGHGHKHERDQGHGHQRGHGLGHGHEQQHGLGHGHKFKLDDDLEHQGGHVLDHGHKHKHGHGHGKHKNKGKKNGKHNGWKTEHLASSSEDSTTPSAQTQEKTEGPTPIPSLAKPGVTVTFSDFQDSDLIATMMPPISPAPIQSDDDWIPDIQIDPNGLSFNPISDFPDTTSPKCPGRPWKSVSEINPTTQMKESYYFDLTDGLS
One may read the Km as the concentration of substrate that gives half-maximal velocity. One may read the kcat as the maximal rate divided by the concentration of active sites. As to B1, in the data set with KLKB1 [7], the Km is 0.75 µM and the turnover number (kcat) is 0.031 s⁻¹.
